According to the supplement of paper PMC10307832:

Experiments:
Assay in all cases: relative viability (nuclei count vs DMSO), 5 days (fraction); higher = more cells survive
[1] = compound: CO[C@@H]1[C@H](N(C)C(=O)c2ccccc2)C[C@H]2O[C@]1(C)n1c3ccccc3c3c4c(c5c6ccccc6n2c5c31)C(=O)NC4 [Midostaurin] + C[C@]1(O)C[C@@H](c2nc(-c3ccc4ccc(-c5ccccc5)nc4c3)c3c(N)nccn32)C1 [Linsitinib] (partner 1 µM)
In short: (§1)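 Cells from lung cancer lines were seeded into 1536-well plates and, one day later, dosed by pin tool. Treatments were either a single drug or a fixed dose of an anchor drug with five library-drug doses (not always all listed) in √10 steps. After 5 days, nuclei were stained in a one-step fixation (final 0.05% Triton X-100, 1% formaldehyde, 1 ug/ml Hoechst) and counted on 4× images, and relative viability is the treated-to-vehicle nuclei ratio, as the median of duplicate plates.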

[2] = compound: CO[C@@H]1[C@H](N(C)C(=O)c2ccccc2)C[C@H]2O[C@]1(C)n1c3ccccc3c3c4c(c5c6ccccc6n2c5c31)C(=O)NC4 [Midostaurin] + O=C(CCCCCCC(=O)Nc1ccccc1)NO [Vorinostat] (partner 1 µM)
In short: as §1

[3] = compound: CO[C@@H]1[C@H](N(C)C(=O)c2ccccc2)C[C@H]2O[C@]1(C)n1c3ccccc3c3c4c(c5c6ccccc6n2c5c31)C(=O)NC4 [Midostaurin] + Cc1nc(NC(=O)N2CCC[C@H]2C(N)=O)sc1-c1ccnc(C(C)(C)C(F)(F)F)c1 [Alpelisib] (partner 2 µM)
In short: as §1

[4] = compound: CO[C@@H]1[C@H](N(C)C(=O)c2ccccc2)C[C@H]2O[C@]1(C)n1c3ccccc3c3c4c(c5c6ccccc6n2c5c31)C(=O)NC4 [Midostaurin] + O=C(c1cc(Cc2n[nH]c(=O)c3ccccc23)ccc1F)N1CCN(C(=O)C2CC2)CC1 [Olaparib] (partner 8 µM)
In short: as §1

[5] = compound: CO[C@@H]1[C@H](N(C)C(=O)c2ccccc2)C[C@H]2O[C@]1(C)n1c3ccccc3c3c4c(c5c6ccccc6n2c5c31)C(=O)NC4 [Midostaurin] + N=C(N)NC(=N)NCCc1ccccc1 [Phenformin] (partner 250 µM)
In short: as §1

UMC-11
relative viability ([1]; first compound 0.01 µM): 0.984
relative viability ([1]; first compound 0.03162 µM): 0.998
relative viability ([1]; first compound 0.1 µM): 0.95
relative viability ([1]; first compound 0.3162 µM): 0.586
relative viability ([2]; first compound 0.01 µM): 0.424
relative viability ([2]; first compound 0.03162 µM): 0.445
relative viability ([2]; first compound 0.1 µM): 0.242
relative viability ([2]; first compound 0.3162 µM): 0.187
relative viability ([3]; first compound 0.01 µM): 1.04
relative viability ([3]; first compound 0.03162 µM): 0.915
relative viability ([3]; first compound 0.1 µM): 0.792
relative viability ([3]; first compound 0.3162 µM): 0.375
relative viability ([4]; first compound 0.01 µM): 0.354
relative viability ([4]; first compound 0.03162 µM): 0.387
relative viability ([4]; first compound 0.1 µM): 0.303
relative viability ([4]; first compound 0.3162 µM): 0.207
relative viability ([5]; first compound 0.01 µM): 0.3
relative viability ([5]; first compound 0.03162 µM): 0.328
relative viability ([5]; first compound 0.1 µM): 0.32
relative viability ([5]; first compound 0.3162 µM): 0.281
